The values that follow come from US20150005347A1, “NITROGEN-CONTAINING HETEROCYCLIC DERIVATIVE HAVING 2-IMINO GROUP AND PEST CONTROL AGENT INCLUDING THE SAME” (MEIJI SEIKA PHARMA CO., LTD., priority 2012, published 2015).

Where two headings read alike, the source gives them in different places.

Assay type in all cases: in vivo
The test system of series [1] is Frankliniella occidentalis. The experiment in a line: Pest control test of Frankliniella occidentalis, kidney bean leaf disk foliar spray. The note with it: for % Mortality, Test Example7 Frankliniella occidentalis: foliar treatment, 100 ppm. The text has this: Test Example 7 Pest Control Test of Frankliniella occidentalis
A leaf disk having a diameter of 2.8 cm was cut out from a kidney bean in pot culture, and a drug solution of the compound of the present invention at a predetermined concentration, which had been prepared so as to be a 50% acetone water (0.05% Tween20 available), was sprayed to the leaf disk. After an air drying process, first instar larvae were released thereto. Thereafter, the larvae were left to stand in a thermostatic chamber (16 hours of light period-8 hours of dark period) at 25° C. […] Test in duplicate.
(§1) Mortality of larvae(%)={number of dead larvae/(number of survived larvae+number of dead larvae)}×100

For series [2], the system named is Nilaparvata lugens. In words: Pest control test of Nilaparvata lugens, soil irrigation treatment. As to conditions: for % Mortality, Test Example 12 Nilaparvata lugens: soil irrigation treatment; for mortality of larvae: soil irrigation, 0.05 mg/seedling, three days after release. The procedure: Test Example 12 Pest Control Test of Nilaparvata lugens
A rice seedling in pot culture was subjected to soil irrigation treatment with a drug solution of the compound of the present invention at a predetermined concentration, which had been prepared so as to be a 10% acetone water. Three days after the treatment, ten second instar larvae of Nilaparvata lugens were each released thereto. Thereafter, the larvae were left to stand in a thermostatic chamber (16 hours of light period-8 hours of dark period) at 25° C. […] The test was performed in duplicate.
as §1

In series [3] the test system is Laodelphax striatella. The experiment in a line: Pest control test of Laodelphax striatella, soil irrigation treatment of rice seedling. As to conditions: for % Mortality, Test Example 10 Laodelphax striatella: soil irrigation treatment; for mortality of larvae: soil irrigation, 0.05 mg/seedling, three days after release.
From the text: <Soil Irrigation Treatment Test>
Test Example 10 Pest Control Test of Laodelphax striatellua
A rice seedling in pot culture was subjected to soil irrigation treatment with a drug solution of the compound of the present invention at a predetermined concentration, which had been prepared so as to be a 10% acetone water. Three days after the treatment, ten second instar larvae of Laodelphax striatella were each released thereto. Thereafter, the larvae were left to stand in a thermostatic chamber (16 hours of light period-8 hours of dark period) at 25° C. […] The test was performed in duplicate.
as §1

The test system of series [4] is Nilaparvata lugens exhibiting drug resistance to imidacloprid. The note with it: soil irrigation; for Insecticidal effects against Nilaparvata lugens (mortality of larvae %), Drug resistant populations three days after the treatment: Rate 0.05 mg/pot; for insecticidal effects against drug resistant Nilaparvata lugens: imidacloprid-resistant; for mortality of larvae against drug resistant populations compared with susceptible populations of Nilaparvata lugens: imidacloprid-resistant vs susceptible. The method, then:
Test Example 18 Pest Control Test of Drug-Resistant Nilaparvata lugens
(§2) A rice seedling in pot culture was subjected to soil irrigation treatment with a drug solution of the compound of the present invention at a predetermined concentration, which had been prepared so as to be a 10% acetone water. […] Thereafter, the larvae were left to stand in a thermostatic chamber (16 hours of light period-8 hours of dark period) at 25° C. […] The test was performed in duplicate.
as §1
(§3) Further, for the origin of test pests, bugs collected outdoors within the Kumamoto prefecture in 2007 as the drug resistant Nilaparvata lugens, and bugs collected within the Kagoshima prefecture and then successively reared indoors for a long time as the imidacloprid susceptible populations of Nilaparvata lugens were used.

Series [5] relates to Plutella xylostella. The experiment in a line: Plutella xylostella control test, cabbage leaf disk foliar spray. As to conditions: for % Mortality, Test Example1 Plutella xylostella: foliar treatment. The method, then: Test Example 1 Plutella xylostella Control Test
A leaf disk having a diameter of 5.0 cm was cut out from a cabbage in pot culture, and a drug solution of the compound of the present invention at a predetermined concentration, which had been prepared so as to be a 50% acetone water (0.05% Tween20 available), was sprayed to the leaf disk. After an air drying process, second instar larvae were released thereto. Thereafter, the larvae were left to stand in a thermostatic chamber (16 hours of light period-8 hours of dark period) at 25° C. […] Test in duplicate.
mortality larvae(%)={number of dead larvae/(number of survived larvae+number of dead larvae)}×100

The test system of series [6] is Musca domestica. In words: Pest control test of Musca domestica adults, sucrose pledget. The note with it: 50 ppm in 40% sucrose liquid; four days after release. The method, then:
Test Example 21 Pest Control Test of Musca domestica
A drug solution of the compound of the present invention, which had been adjusted to be 50 ppm with a 40% sucrose liquid, was adsorbed on a pledget, and the pledget was put into a vial. Two adults reared indoors were released thereto. Thereafter, the adults were left to stand indoors at room temperature of 25° C. […] When two adults were all agonized in death, it was judged to be effective.

The test system of series [7] is Aphis gossypii. The experiment in a line: Pest control test of Aphis gossypii, cucumber leaf disk foliar spray. The note with it: foliar treatment. The method, then: Test Example 3 Pest Control Test of Aphis gossypii
A leaf disk having a diameter of 2.0 cm was cut out from a cucumber in pot culture, and a drug solution of the compound of the present invention at a predetermined concentration, which had been prepared so as to be a 50% acetone water (0.05% Tween20 available), was sprayed to the leaf disk. After an air drying process, first instar larvae were released thereto. Thereafter, the larvae were left to stand in a thermostatic chamber (16 hours of light period-8 hours of dark period) at 25° C. […] Test in duplicate.
as §1

Series [8] concerns Trigonotylus caelestialium. The experiment in a line: Pest control test of Trigonotylus caelestialium, wheat seedling dipping.
From the text: Test Example 8 Pest Control Test of Trigonotylus caelestialium
Wheat seedling leaves and stems four days after the dissemination of seedlings were dipped for 30 seconds in a drug solution of the compound of the present invention at a predetermined concentration, which had been prepared so as to be a 50% acetone water (0.05% Tween20 available). After an air drying process, the wheat seedling leaves and stems were placed into a glass tube, and two second instar larvae of Trigonotylus caelestialium were released to the same glass tube. After the larvae were released, the tube was lidded to leave the larvae to stand in a thermostatic chamber at 25° C. In order to supply water to the wheat during the test, water was given to the wheat from the bottom of the glass tube.
as §1

Series [9] concerns imidacloprid susceptible populations of Nilaparvata lugens. The experiment in a line: Soil irrigation test, imidacloprid susceptible populations of Nilaparvata lugens. As to conditions: Rate 0.05 mg/pot. The method, then: as §2, §1
Further, for comparison, the test against some population of Nilaparvata lugens which is highly susceptible to imidacloprid was performed by the same method as described above, and the results thereof are shown in Table 43.
as §3

For series [10], the system named is Spodoptera litura. In words: Pest control test against Spodoptera litura, cabbage leaf disk foliar spray. The note with it: for % Mortality, Test Example2 Spodoptera litura: foliar treatment, 100 ppm; for mortality at 500 ppm: Spodoptera litura, 72 h, read-out: mortality of larvae. The procedure: Test Example 2 Pest Control Test Against Spodoptera litura
A leaf disk having a diameter of 5.0 cm was cut out from a cabbage in pot culture, and a drug solution of the compound of the present invention at a predetermined concentration, which had been prepared so as to be a 50% acetone water (0.05% Tween20 available), was sprayed to the leaf disk. After an air drying process, third instar larvae were released thereto. Thereafter, the larvae were left to stand in a thermostatic chamber (16 hours of light period-8 hours of dark period) at 25° C. […] Test in duplicate.
as §1

`FC(F)(F)C(=S)N=c1ccccn1Cc1ccc(Br)nc1` [Compound 4-20]: the “% Mortality, Test Example7 Frankliniella occidentalis” value in series [1] is on record as 60%. The “% Mortality, Test Example 12 Nilaparvata lugens” value in [2] (0.01 mg/pot) is 96%; in [2] (0.05 mg/pot), 100%. Moreover, the figures for the “% Mortality, Test Example 10 Laodelphax striatella” value in series [3] (0.005 mg/pot), in series [3] (0.01 mg/pot) and in [3] (0.05 mg/pot) were 35%, 100% and 100%, respectively. Further, the “Insecticidal effects against Nilaparvata lugens (mortality of larvae %), Drug resistant populations three days after the treatment” value in series [4] was 100%. In addition, the “insecticidal effects against drug resistant Nilaparvata lugens” value in series [4] is recorded as “high insecticidal effects”. For the same molecule, the “mortality of larvae against drug resistant populations compared with susceptible populations of Nilaparvata lugens” value in [4] was “equivalent mortality of larvae”. The “% Mortality, Test Example1 Plutella xylostella” value in series [5] (20 ppm) was 70%; in series [5] (100 ppm) it was 100%. In addition, the “activity against adults (effective when two adults were all agonized in death)” value (shortened to “activity against adults”) in [6] was “all the adults are agonized in death”. Further, the “% Mortality, Test Example3 Aphis gossypii” value in series [7] (1.25 ppm), in [7] (5 ppm) and in series [7] (100 ppm) was 100% throughout. For the same molecule, the “% Mortality, Test Example8 Trigonotylus caelestialium” value was 33% in [8] (2 ppm), 100% in [8] (10 ppm) and 100% in series [8] (50 ppm). Also, in series [9], the “Insecticidal effects against Nilaparvata lugens (mortality of larvae %), Susceptible populations three days after the treatment” value was 95%. Besides, in series [10], the “% Mortality, Test Example2 Spodoptera litura” value came out at 20%.

In the case of `Fc1ccc(Cn2ccccc2=NC(=S)C(F)(F)F)cn1` [Compound 3-20], in series [1], the “% Mortality, Test Example7 Frankliniella occidentalis” value came out at 45%. For the same molecule, the “% Mortality, Test Example 12 Nilaparvata lugens” value in [2] (0.01 mg/pot) and in [2] (0.05 mg/pot) was 100% throughout. Besides, the “% Mortality, Test Example 10 Laodelphax striatella” value in series [3] (0.05 mg/pot) stood at 90%. Further, the “Insecticidal effects against Nilaparvata lugens (mortality of larvae %), Drug resistant populations three days after the treatment” value in [4] is recorded as 100%. Besides, the “insecticidal effects against drug resistant Nilaparvata lugens” value in [4] is “high insecticidal effects”. For the same molecule, the “mortality of larvae against drug resistant populations compared with susceptible populations of Nilaparvata lugens” value in series [4] is reported as “equivalent mortality of larvae”. Besides, the results for the “% Mortality, Test Example1 Plutella xylostella” value in series [5] (20 ppm) and in [5] (100 ppm) were 0% and 55%, respectively. In addition, the “activity against adults” value in series [6] is listed as “all the adults are agonized in death”. In addition, the “% Mortality, Test Example3 Aphis gossypii” value in series [7] (0.313 ppm) was 15%; in [7] (1.25 ppm) it was 100%; in [7] (5 ppm), 100%; in series [7] (20 ppm), 100%; in series [7] (100 ppm) it was 100%. Besides, the figures for the “% Mortality, Test Example8 Trigonotylus caelestialium” value in [8] (2 ppm), in [8] (10 ppm) and in series [8] (50 ppm) were 50%, 100% and 100%, respectively. Besides, the “Insecticidal effects against Nilaparvata lugens (mortality of larvae %), Susceptible populations three days after the treatment” value in [9] stood at 100%. Further, in series [10], the “% Mortality, Test Example2 Spodoptera litura” value stood at 30%.

The term mortality denotes the share of the test organisms that died. `CCOC(=O)NC(=S)/N=c1\ccccn1Cc1ccc(Cl)nc1` [Comparative Example 9, 1-[1-((6-chloropyridine-3-yl)methyl)pyridine-2(1H)-ylidene]-3-ethoxycarbonylthiourea, reference compound]: the mortality of larvae in series [2] and in [3] was 0% each time. For the same molecule, the “Insecticidal effects against Nilaparvata lugens (mortality of larvae %), Susceptible populations three days after the treatment” value in series [9] is on record as 0%. For the same molecule, in [10] (foliar treatment at 500 ppm, third instar larvae, three days after release), the mortality at 500 ppm amounted to 11%.

With `FC(F)(F)C(F)(F)C(=S)N=c1ccccn1Cc1ccc(Cl)nc1` [Compound 1-23], in series [4], the “Insecticidal effects against Nilaparvata lugens (mortality of larvae %), Drug resistant populations three days after the treatment” value was determined as 70%; the “insecticidal effects against drug resistant Nilaparvata lugens” value is “high insecticidal effects”; the “mortality of larvae against drug resistant populations compared with susceptible populations of Nilaparvata lugens” value is “equivalent mortality of larvae”. Further, in series [6], the “activity against adults” value is listed as “all the adults are agonized in death”. The “Insecticidal effects against Nilaparvata lugens (mortality of larvae %), Susceptible populations three days after the treatment” value in series [9] came to 85%.

Regarding `CCNC(=S)N=c1ccccn1Cc1ccc(Cl)nc1` [Comparative Example 8, 1-[1-((6-chloropyridine-3-yl)methyl)pyridine-2(1H)-ylidene]-3-ethylthiourea, reference compound], the mortality at 500 ppm in [1] (Frankliniella occidentalis, foliar, 72 h, read-out: mortality of larvae) turned out to be 15%; in series [5] (Plutella xylostella, foliar, 72 h, read-out: mortality of larvae), 20%; in [10] (foliar), 10%. Besides, the mortality of larvae in [2] came out at 15%; in [3], 0%. For the same molecule, in [9], the “Insecticidal effects against Nilaparvata lugens (mortality of larvae %), Susceptible populations three days after the treatment” value was 15%.

As for `FC(F)(Cl)C(=S)N=c1ccccn1Cc1ccc(Cl)nc1` [Compound 1-22], in series [4], the “Insecticidal effects against Nilaparvata lugens (mortality of larvae %), Drug resistant populations three days after the treatment” value is reported as 60%; the “insecticidal effects against drug resistant Nilaparvata lugens” value is on record as “high insecticidal effects”; the “mortality of larvae against drug resistant populations compared with susceptible populations of Nilaparvata lugens” value was “equivalent mortality of larvae”. For the same molecule, the “activity against adults” value in [6] is “all the adults are agonized in death”. In addition, the “Insecticidal effects against Nilaparvata lugens (mortality of larvae %), Susceptible populations three days after the treatment” value in [9] is 75%.
